Assay results published in patent publication US8178678B2, “Bis-quaternary ammonium salts and methods for modulating neuronal nicotinic acetylcholine receptors” (University of Kentucky Research Foundation, priority 2006, dated 2012).
Where two headings read alike, the source gives them in different places.

Assays:
[1] = target: T1, Rat Striatal Nicotinic Receptors ([^3H]MLA binding sites; α7) (Rattus norvegicus, UniProt Q05941); test: Inhibition of [^3H]MLA (methyllycaconitine) binding; settings: for inhibition at 0.1 µM: read-out: [^3H]MLA binding, % inhibition
T1 construct: Whole brain, excluding cortex and cerebellum, was homogenized in 20 vol of ice-cold buffer; from tissue; host or cells: rat brain membranes (whole brain excluding cortex and cerebellum)
In short: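 Rat brain membranes were washed by repeated centrifugation at 25,000 g, with a 10 min incubation at 37° C. in between. Samples of 250 μl, containing 100-140 μg of membrane protein, 3 nM [^3H]-methyllycaconitine and test analog in 50 mM Tris assay buffer, were incubated in 96-well plates for 60 min at room temperature. Nonspecific binding was defined with 10 μM S-nicotine. Bound radioactivity was collected on polyethylenimine-soaked GF/B filter plates and counted on a TopCount.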

[2] = test system: nicotinic receptors mediating S-nicotine-evoked [^3H]DA release in rat striatal slices; test: Inhibition of S-nicotine-evoked [^3H]dopamine release from superfused rat striatal slices; type: cell-based; settings: for inhibition at 0.1 µM: 1 h, read-out: [^3H]DA release, % inhibition of S-nicotine-evoked release
Procedure: Rat striatal slices (500 μm thickness, 6-8 mg wet weight) were incubated for 30 minutes in Krebs buffer (118 mM NaCl, 4.7 mM KCl, 1.2 mM MgCl2, 1.0 mM NaH2PO4, 1.3 mM CaCl2, 11.1 mM glucose, 25 mM NaHCO3, 0.11 mM L-ascorbic acid, and 0.004 mM disodium EDTA; pH 7.4, and saturated with 95% O2/5% CO2) in a metabolic shaker at 34° C. Slices were rinsed with 15 mL of fresh buffer and incubated for an additional 30 minutes in fresh buffer containing 0.1 μM [^3H]dopamine (DA; 6 slices/3 mL). Subsequently, slices were rinsed with 15 mL of fresh buffer and transferred to a glass superfusion chamber. Slices were superfused (1.0 mL/min) for 60 minutes with Krebs buffer containing nomifensine (10 μM) and pargyline (10 μM) and maintained at 34° C., pH 7.4, with continual aeration (95% O2/5% CO2). Two five minute samples (5 mL each) were collected to determine basal outflow of [^3H]DA. The bis-quaternary ammonium analogs were added to the superfusion buffer after the collection of the second sample and remained in the buffer until 12 consecutive five minute samples were collected. Subsequently, S-nicotine (NIC; 10 μM) was added to the buffer and an additional 12 consecutive five minute samples were collected. At the end of the experiment, each slice was solubilized and the [^3H] content of the tissue determined.
Radioactivity in the superfusate and tissue samples was determined by liquid scintillation spectroscopy. Fractional release for tritium collected in each sample was divided by the total tritium present in the tissue at the time of sample collection and was expressed as a percentage of total tritium. Basal [^3H]outflow was calculated from the average of the tritium collected in the two five minute samples just before addition of the quaternary analog. The sum of the increase in collected tritium resulting from either exposure to the test compound or exposure to S-nicotine in the absence and presence of the test compound equaled total [^3H]overflow. [^3H]Overflow was calculated by subtracting the [^3H]outflow during an equivalent period of prestimulation from the values in samples collected during and after drug exposure. Inasmuch as the radiolabelled compounds were not separated and identified, the tritium collected in superfusate is referred to as either [3H]outflow or [^3H]overflow, rather than as [^3H]DA. [^3H]Overflow primarily represents [^3H]DA in the presence of nomifensine and pargyline in the superfusion buffer.
The bis-quaternary ammonium analogs were also evaluated for their ability to inhibit NIC evoked [^3H]DA release. In these experiments, the striatal slices were superfused for 60 minutes with 100 nM concentration of the quaternary analogs prior to NIC (10 μM) exposure. Antagonist activity was evaluated by comparing the NIC-evoked [^3 H]overflow in the absence and presence of the analogs. The relative order of potency of the quaternary analogs for inhibition of NIC-evoked [^3H]DA release from rat striatal slices is illustrated in Table 1.
^aData are % inhibition at 100 nM concentration of the bis-quaternary ammonium analogs for at least 1-3 independent experiments; with the exception of when a Ki value in μM is provided, in which case a full concentration effect was evaluated. Specific binding in the [^3H]NIC binding assay is calculated as the difference between the total binding of 3 nM [^3H]NIC and nonspecific binding in the presence of 10 μM cold cytisine. Specific binding for the [^3H]MLA binding assay is calculated as the difference between the total binding of […] [^3H]MLA to the receptors alone and its nonspecific binding in the presence of […] cold S-nicotine. Analog-induced inhibition of S-nicotine-evoked [^3H]DA release is calculated as a percent of that in the absence of the bis-quaternary ammonium analog.

[3] = target: T2, Rat Striatal Nicotinic Receptors ([^3H]NIC binding sites; α4β2) (Rattus norvegicus, UniProt P09483+P12390); test: Inhibition of [^3H]NIC binding
T2 construct: Whole brain, excluding cortex and cerebellum, was homogenized in 20 vol of ice-cold buffer; from tissue; host or cells: rat brain membranes (whole brain excluding cortex and cerebellum)

[4] = target: T2, Rat Striatal Nicotinic Receptors ([^3H]NIC binding sites; α4β2); test: Inhibition of [^3H]NIC binding; settings: 1 h; 100 nM analog; 3 nM [^3H]NIC; nonspecific 10 μM cytisine; rat brain membranes
[5] = full concentration effect, [^3H]MLA, nonspecific S-nicotine, rat brain membranes, read-out: [^3H]MLA binding, Ki
[6] = full concentration effect, 3 nM [^3H]NIC, nonspecific 10 μM cytisine, rat brain membranes, read-out: [^3H]NIC binding, Ki
[7] = 100 nM analog superfused 60 min before NIC 10 μM, rat striatal slices
[8] = 100 nM analog, [^3H]MLA, nonspecific S-nicotine, rat brain membranes

T2 sequence (P09483 31-630): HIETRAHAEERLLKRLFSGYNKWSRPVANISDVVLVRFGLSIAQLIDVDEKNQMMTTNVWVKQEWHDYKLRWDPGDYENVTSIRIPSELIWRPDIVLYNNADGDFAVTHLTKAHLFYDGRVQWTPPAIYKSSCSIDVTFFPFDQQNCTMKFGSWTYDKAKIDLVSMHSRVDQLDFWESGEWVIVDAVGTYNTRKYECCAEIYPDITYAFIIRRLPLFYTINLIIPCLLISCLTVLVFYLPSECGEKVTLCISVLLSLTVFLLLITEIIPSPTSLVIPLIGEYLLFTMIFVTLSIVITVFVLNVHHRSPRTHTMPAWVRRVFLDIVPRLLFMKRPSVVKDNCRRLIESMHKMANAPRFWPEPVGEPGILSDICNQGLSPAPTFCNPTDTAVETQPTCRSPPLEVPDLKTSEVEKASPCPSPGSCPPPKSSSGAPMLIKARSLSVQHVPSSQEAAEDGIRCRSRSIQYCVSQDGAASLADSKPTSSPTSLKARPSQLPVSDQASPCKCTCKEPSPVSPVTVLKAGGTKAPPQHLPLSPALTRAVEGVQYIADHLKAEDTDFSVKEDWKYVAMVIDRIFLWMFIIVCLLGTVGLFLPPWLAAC
T2 sequence (P12390 25-500): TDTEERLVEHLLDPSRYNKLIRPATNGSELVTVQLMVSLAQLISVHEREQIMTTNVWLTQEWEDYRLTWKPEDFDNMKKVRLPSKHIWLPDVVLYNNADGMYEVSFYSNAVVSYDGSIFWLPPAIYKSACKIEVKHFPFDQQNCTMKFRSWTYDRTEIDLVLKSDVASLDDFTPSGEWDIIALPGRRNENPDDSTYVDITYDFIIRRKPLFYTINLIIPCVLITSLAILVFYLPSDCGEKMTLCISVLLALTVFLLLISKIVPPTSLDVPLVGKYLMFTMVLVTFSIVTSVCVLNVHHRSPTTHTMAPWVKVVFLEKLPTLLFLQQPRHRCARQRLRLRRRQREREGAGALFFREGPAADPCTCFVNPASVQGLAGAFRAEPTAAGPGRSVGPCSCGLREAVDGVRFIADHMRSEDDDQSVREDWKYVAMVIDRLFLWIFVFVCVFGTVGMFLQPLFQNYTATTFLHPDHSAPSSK
T1 sequence (Q05941 23-502): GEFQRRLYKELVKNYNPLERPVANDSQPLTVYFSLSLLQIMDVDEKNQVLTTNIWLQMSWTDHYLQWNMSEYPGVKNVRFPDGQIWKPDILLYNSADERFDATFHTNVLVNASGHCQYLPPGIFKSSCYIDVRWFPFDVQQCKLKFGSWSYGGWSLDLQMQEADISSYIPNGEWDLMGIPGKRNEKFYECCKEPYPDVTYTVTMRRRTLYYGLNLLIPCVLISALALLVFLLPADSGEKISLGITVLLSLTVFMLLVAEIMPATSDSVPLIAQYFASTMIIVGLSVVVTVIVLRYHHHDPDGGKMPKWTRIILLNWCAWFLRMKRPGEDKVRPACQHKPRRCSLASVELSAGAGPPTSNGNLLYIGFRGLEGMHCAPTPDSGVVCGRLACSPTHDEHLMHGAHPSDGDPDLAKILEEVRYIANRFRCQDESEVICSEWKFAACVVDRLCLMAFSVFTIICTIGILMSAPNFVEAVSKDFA

CN1CCC[C@H]1c1ccc[n+](CCCC/C=C\C=C/CCCC[n+]2cccc([C@@H]3CCCN3C)c2)c1 [Example 1, cis-cis-N,N′-(dodeca-5,7-diene-1,12-diyl)-bis-[3-(2′-S-1-methyl-pyrrolidin-2-yl)-pyridinium]dibromide]
Ki [1, 5]: > 100 µM | inhibition at 0.1 µM ([2]; Rattus norvegicus): 11% | Ki [3, 6]: 1.09 µM

c1cc(CCCC[n+]2ccc3c(c2)CCCC3)ccc1CCCC[n+]1ccc2c(c1)CCCC2 [Example 16, N,N′-[1,4-phenylenedi-(4-butanyl)]-bis-(5,6,7,8-tetrahydroisoquinolinium)dibromide]
Ki [1, 5]: 15.3 µM | Ki [3, 6]: > 100 µM

Cc1cccc[n+]1CCCC/C=C\C=C/CCCC[n+]1ccccc1C [Example 2, cis-cis-N,N′-(dodeca-5,7-diene-1,12-diyl)-bis-(2-methyl-pyridinium)dibromide]
inhibition at 0.1 µM [1]: 4.2% | inhibition at 0.1 µM ([2]; Rattus norvegicus): 0% | inhibition at 0.1 µM ([3]; 1 h, read-out: [^3H]NIC binding, % inhibition): 11%

Cc1cc[n+](CCCCC#CC#CCCCC[n+]2ccc(C)c(C)c2)cc1C [Example 94, N,N′-(5,7-dodecadiyn-1,12-diyl)-bis-(3,4-dimethylpyridinium)dichloride]
Ki [1, 5]: 24.1 µM | inhibition at 0.1 µM [2, 7]: 21% | Ki [3, 6]: 8.6 µM

Cc1cc(C)c[n+](CCCCC#CC#CCCCC[n+]2cc(C)cc(C)c2)c1 [Example 95, N,N′-(5,7-dodecadiyn-1,12-diyl)-bis-(3,5-dimethylpyridinium)dichloride]
Ki [1]: 25.6 µM | IC50 ([2]; NIC 10 μM, rat striatal slices): > 1 µM | Ki [3]: > 100 µM

C(/C=C\CCCC[n+]1ccc2c(c1)CCCC2)=C/CCCC[n+]1ccc2c(c1)CCCC2 [Example 6, cis-cis-N,N′-(dodeca-5,7-diene-1,12-diyl)-bis-(5,6,7,8-tetrahydro-isoquinolinium)dibromide]
Ki [1, 5]: 3 µM | Ki [3, 6]: 5.84 µM

C(/C=C\CCCC[n+]1cccc2c1CCCC2)=C/CCCC[n+]1cccc2c1CCCC2 [Example 5, cis-cis-N,N′-(dodeca-5,7-diene-1,12-diyl)-bis-(5,6,7,8-tetrahydro-quinolinium)dibromide]
Ki [1, 5]: 7.64 µM | Ki [3, 6]: 3.63 µM

c1cc2c([n+](CCCCc3ccc(CCCC[n+]4cccc5c4CCCC5)cc3)c1)CCCC2 [Example 15, N,N′-[1,4-phenylenedi-(4-butanyl)]-bis-(5,6,7,8-tetrahydroquinolinium)dibromide]
Ki [1, 5]: 7.68 µM | Ki [3, 6]: 12 µM

Cc1cc(C)c[n+](CCCCCc2ccccc2CCCCC[n+]2cc(C)cc(C)c2)c1 [Example 39, 1,2-bis-[5-(3,5-dimethyl-pyridinium)-pentyl]-benzene dibromide]
inhibition at 0.1 µM [1, 8]: 0% | inhibition at 0.1 µM [2, 7]: 47% | inhibition at 0.1 µM [4]: 0.7%

Cc1cccc[n+]1CCCCCc1cccc(CCCCC[n+]2ccccc2C)c1 [Example 62, 1,3-bis-[5-(2-methyl-pyridinium)-pentyl]-benzene dibromide]
inhibition at 0.1 µM [1, 8]: 0% | inhibition at 0.1 µM [2, 7]: 62% | inhibition at 0.1 µM [4]: 7.2%

Cc1cc[n+](CCCC#Cc2cccc(C#CCCC[n+]3ccc(C)cc3C)c2)c(C)c1 [Example 51, 1,3-bis-[5-(2,4-dimethyl-pyridinium)-pent-1-ynyl]-benzene dibromide]
inhibition at 0.1 µM [1, 8]: 5.5% | inhibition at 0.1 µM [2, 7]: 0% | inhibition at 0.1 µM [4]: 7%

CN1CCCC1c1ccc[n+](CCCCCc2ccccc2CCCCC[n+]2cccc([C@@H]3CCCN3C)c2)c1 (stereo partly shown) [Example 42, 1,2-bis-[5-(2′-S-nicotinium-pentyl)]benzene dibromide]
inhibition at 0.1 µM [1, 8]: 11% | inhibition at 0.1 µM [2, 7]: 59% | inhibition at 0.1 µM [4]: 71%

Cc1ccc[n+](CCCC#Cc2ccccc2C#CCCC[n+]2cccc(C)c2)c1 [Example 24, 1,2-bis-[5-(3-methyl-pyridinium)-pent-1-ynyl]-benzene dibromide]
inhibition at 0.1 µM [1, 8]: 0% | inhibition at 0.1 µM [2, 7]: 46% | inhibition at 0.1 µM [4]: 3.9%

C(C#CCCCC[n+]1ccc2c(c1)CCCC2)#CCCCC[n+]1ccc2c(c1)CCCC2 [Example 96, N,N′-(5,7-dodecadiyn-1,12-diyl)-bis-(5,6,7,8-tetrahydroisoquinolinium)dichloride]
Ki [1, 5]: 5.36 µM | Ki [3, 6]: 11.3 µM

Cc1cc[n+](CCCCCc2cccc(CCCCC[n+]3ccc(C)cc3)c2)cc1 [Example 64, 1,3-bis-[5-(4-methyl-pyridinium)-pentyl]-benzene dibromide]
inhibition at 0.1 µM [1, 8]: 3.5% | inhibition at 0.1 µM [2, 7]: 27% | inhibition at 0.1 µM [4]: 4.6%

Cc1cc[n+](CCCCCc2ccccc2CCCCC[n+]2ccc(C)c(C)c2)cc1C [Example 38, 1,2-bis-[5-(3,4-dimethyl-pyridinium)-pentyl]-benzene dibromide]
inhibition at 0.1 µM [1, 8]: 4.6% | inhibition at 0.1 µM [2, 7]: 10% | inhibition at 0.1 µM [4]: 3%

Cc1cc[n+](CCCCCc2ccccc2CCCCC[n+]2ccc(C)cc2C)c(C)c1 [Example 37, 1,2-bis-[5-(2,4-dimethyl-pyridinium)-pentyl]-benzene dibromide]
inhibition at 0.1 µM [1, 8]: 4.8% | inhibition at 0.1 µM [2, 7]: 20% | inhibition at 0.1 µM [4]: 0%

c1ccc(CCCCC[n+]2cccc3ccccc32)c(CCCCC[n+]2cccc3ccccc32)c1 [Example 40, 1,2-bis-(5-quinolinium-pentyl)-benzene dibromide]
inhibition at 0.1 µM [1, 8]: 6.3% | inhibition at 0.1 µM [2, 7]: 24% | inhibition at 0.1 µM [4]: 0%

Cc1cc[n+](CCCC#Cc2cccc(C#CCCC[n+]3ccc(C)c(C)c3)c2)cc1C [Example 52, 1,3-bis-[5-(3,4-dimethyl-pyridinium)-pent-1-ynyl]-benzene dibromide]
inhibition at 0.1 µM [1, 8]: 3.3% | inhibition at 0.1 µM [2, 7]: 11% | inhibition at 0.1 µM [4]: 11%

c1cc(CCCCC[n+]2ccc3ccccc3c2)cc(CCCCC[n+]2ccc3ccccc3c2)c1 [Example 69, 1,3-bis-(5-isoquinolinium-pentyl)-benzene dibromide]
inhibition at 0.1 µM [1, 8]: 5.2% | inhibition at 0.1 µM [2, 7]: 0% | inhibition at 0.1 µM [4]: 8.8%

Cc1cc[n+](CCCCCc2cccc(CCCCC[n+]3ccc(C)cc3C)c2)c(C)c1 [Example 65, 1,3-bis-[5-(2,4-dimethyl-pyridinium)-pentyl]-benzene dibromide]
inhibition at 0.1 µM [1, 8]: 5.6% | inhibition at 0.1 µM [2, 7]: 26% | inhibition at 0.1 µM [4]: 0.5%

Cc1cccc[n+]1CCCCCc1ccccc1CCCCC[n+]1ccccc1C [Example 34, 1,2-bis-[5-(2-methyl-pyridinium)-pentyl]-benzene dibromide]
inhibition at 0.1 µM [1, 8]: 7.6% | inhibition at 0.1 µM [2, 7]: 8% | inhibition at 0.1 µM [4]: 0%
